Where two headings read alike, the source gives them in different places.
Test system: HIV-1 (NL4-3 strain)
Test: Assay for inhibition of HIV replication (MT4-gag-GFP reporter cell line, kinetic assay)
Type: cell-based
Protocol: This assay is a kinetic assay that employs a reporter cell line (MT4-gag-GFP) to quantify the number of new cells infected in each round of replication.
MT4-GFP cells (250,000 cells/ml) were bulk-infected with HIV-1 (NL4-3 strain) at low multiplicity of infection (MOI) in RPMI+10% FBS for 24 hours. Cells were then washed once in RPMI+10% FBS and resuspended in RPMI+0% or 10% or 100% normal human serum (NHS). Test compounds were serial-diluted in DMSO on ECHO. The infected MT4-GFP cells were added to a 384-well poly-D-lysine coated black plate with clear bottom in which the diluted test compounds were placed. The cells were seeded at 8,000 cells per well and the final DMSO concentration was 0.4%. The infected cells (Green GFP cells) were quantified at both 24 and 48 hours post incubation using Acumen eX3. Viral reproductive ratio (R0) was determined using the number of infected cells at 48 hours divided by the number of infected cells at 24 hours. Percent viral growth inhibition was calculated by [1−(R−Rtripledrug)/(RDMSO−Rtripledrug)]*100. Compound potency IP or IC50 was determined by a 4-parameter dose response curve analysis.

[1] = Human immunodeficiency virus 1, NL43, Table A, infected MT4-GFP cells, RPMI + 0% normal human serum, IP from 4-parameter dose response curve, read-out: Wild Type Cell Assay IP (0% NHS)
[2] = Table A, infected MT4-GFP cells, RPMI + 10% normal human serum, read-out: Wild Type Cell Assay IP (10% NHS)
[3] = Table B (selected enantiomeric compounds), 100% normal human serum, read-out: Wild Type Cell Assay IP (100% NHS)
[4] = Human immunodeficiency virus 1, NL43, Table B (selected enantiomeric compounds), 0% normal human serum, read-out: Wild Type Cell Assay IP (0% NHS)
[5] = Human immunodeficiency virus 1, NL43, Table A, infected MT4-GFP cells, RPMI + 10% normal human serum, read-out: Wild Type Cell Assay IP (10% NHS)
[6] = Table B (selected enantiomeric compounds), 0% normal human serum, read-out: Wild Type Cell Assay IP (0% NHS)

| Compound | IC50 [1] [nM] | IC50 [5] [nM] | further results |
| --- | --- | --- | --- |
| CCN1C(=O)c2c(O)c(=O)c(-c3nnc(Cc4ccc(F)cc4F)s3)cn2C2COC[C@@H]21 (single isomer, unassigned) [Compound 5, cis-8-(5-(2,4-difluorobenzyl)-1,3,4-thiadiazol-2-yl)-4-ethyl-6-hydroxy-3a,4-dihydro-1H-furo[3,4-e]pyrido[1,2-a]pyrazine-5,7(3H,10aH)-dione] | 9 | – | IC50 [2]: 561 nM; IC50 [3]: 5700 nM |
| CCN1C(=O)c2c(O)c(=O)c(-c3nnc(Cc4ccc(F)cc4F)s3)cn2C2COC[C@@H]21 (single isomer, unassigned) [Compound 4, cis-8-(5-(2,4-difluorobenzyl)-1,3,4-thiadiazol-2-yl)-4-ethyl-6-hydroxy-3a,4-dihydro-1H-furo[3,4-e]pyrido[1,2-a]pyrazine-5,7(3H,10aH)-dione] | – | – | IC50 [4]: 8 nM; IC50 [2]: 17 nM; IC50 [3]: 190 nM |
| CCN1C(=O)c2c(O)c(=O)c(C(=O)NCc3ccc(F)cc3F)cn2C2COC[C@H]21 (stereo partly shown) [Compound 13] | – | 21 | – |
| CCN1C(=O)c2c(O)c(=O)c(C(=O)NCc3ccc(F)cc3F)cn2C2COC[C@@H]21 (single isomer, unassigned) [Compound 11, cis-N-(2,4-difluorobenzyl)-4-ethyl-6-hydroxy-5,7-dioxo-3,3a,4,5,7,10a-hexahydro-1H-furo[3,4-e]pyrido[1,2-a]pyrazine-8-carboxamide] | – | – | IC50 (Table A, infected MT4-GFP cells, RPMI + 0% normal human serum, IP from 4-parameter dose response curve, read-out: Wild Type Cell Assay IP (0% NHS)): 6 nM; IC50 [2]: 148 nM; IC50 [6]: 38 nM; IC50 [3]: 2800 nM |
| CCN1C(=O)c2c(O)c(=O)c(-c3nnc(Cc4ccc(F)cc4F)s3)cn2[C@@H]2COC[C@H]21 (relative stereo) [Compound 3, trans-8-(5-(2,4-difluorobenzyl)-1,3,4-thiadiazol-2-yl)-4-ethyl-6-hydroxy-3a,4-dihydro-1H-furo[3,4-e]pyrido[1,2-a]pyrazine-5,7(3H,10aH)-dione] | – | 58 | – |
| CCN1C(=O)c2c(O)c(=O)c(-c3cn(Cc4ccc(F)cc4F)nn3)cn2C2COC[C@@H]21 (single isomer, unassigned) [Compound 16] | 38 | – | IC50 [4]: 38 nM; IC50 (Human immunodeficiency virus 1, NL43, Table B (selected enantiomeric compounds), 100% normal human serum, read-out: Wild Type Cell Assay IP (100% NHS)): 2700 nM |
| CCN1C(=O)c2c(O)c(=O)c(C(=O)NCc3ccc(F)cc3F)cn2C2COC[C@@H]21 (single isomer, unassigned) [Compound 10, cis-N-(2,4-difluorobenzyl)-4-ethyl-6-hydroxy-5,7-dioxo-3,3a,4,5,7,10a-hexahydro-1H-furo[3,4-e]pyrido[1,2-a]pyrazine-8-carboxamide] | 4 | – | IC50 [2]: 8 nM; IC50 [6]: 80 nM; IC50 [3]: 71 nM |
| CC(C)N1C(=O)c2c(O)c(=O)c(C(=O)NCc3ccc(F)cc3F)cn2C2COC[C@@H]21 (mixture of isomers) [Compound 12] | 3 | 62 | – |
| O=C1N[C@@H]2COC[C@H]2n2cc(-c3nnc(Cc4ccc(F)cc4F)s3)c(=O)c(O)c21 (relative stereo) [Compound 2, trans-8-(5-(2,4-difluorobenzyl)-1,3,4-thiadiazol-2-yl)-6-hydroxy-3a,4-dihydro-1H-furo[3,4-e]pyrido[1,2-a]pyrazine-5,7(3H,10aH)-dione] | – | 385 | – |
| CCCN1C(=O)c2c(O)c(=O)c(-c3nnc(Cc4ccc(F)cc4)s3)cn2C2COC[C@@H]21 (mixture of isomers) [Compound 9] | 10 | 32 | – |
| CCN1C(=O)c2c(O)c(=O)c(-c3nnc(Cc4ccc(F)cc4)s3)cn2C2COC[C@@H]21 (mixture of isomers) [Compound 7] | 36 | 74 | – |
| COCCN1C(=O)c2c(O)c(=O)c(-c3nnc(Cc4ccc(F)cc4F)s3)cn2C2COC[C@@H]21 (mixture of isomers) [Compound 8] | 6 | 13 | – |
| CCC(c1nnc(-c2cn3c(c(O)c2=O)C(=O)N(CC)[C@H]2COCC23)s1)c1ccc(F)cc1F (mixture of isomers) [Compound 6] | 31 | 67 | – |
| O=C1N[C@H]2COCC2n2cc(-c3nnc(Cc4ccc(F)cc4F)s3)c(=O)c(O)c21 (stereo in doubt) [Compound 1, cis-8-(5-(2,4-difluorobenzyl)-1,3,4-thiadiazol-2-yl)-6-hydroxy-3a,4-dihydro-1H-furo[3,4-e]pyrido[1,2-a]pyrazine-5,7(3H,10aH)-dione] | – | 400 | – |
| CCN1C(=O)c2c(O)c(=O)c(-c3cn(Cc4ccc(F)cc4F)nn3)cn2[C@@H]2COC[C@@H]21 (single isomer, unassigned) [Compound 15, cis-8-(1-(2,4-Difluorobenzyl)-1H-1,2,3-triazol-4-yl)-4-ethyl-6-hydroxy-3a,4-dihydro-1H-furo[3,4-e]pyrido[1,2-a]pyrazine-5,7(3H,10aH)-dione] | 80 | – | – |
| CCN1C(=O)c2c(O)c(=O)c(-c3cnn(Cc4ccc(F)cc4F)c3)cn2[C@@H]2COC[C@@H]21 (relative stereo) [Compound 14, cis-8-(1-(2,4-difluorobenzyl)-1H-pyrazol-4-yl)-4-ethyl-6-hydroxy-3a,4-dihydro-1H-furo[3,4-e]pyrido[1,2-a]pyrazine-5,7(3H,10aH)-dione] | 51 | 252 | – |

— patent US9951079B2, “Fused tricyclic heterocyclic compounds as HIV integrase inhibitors” (MERCK SHARP & DOHME CORP., priority 2013, dated 2018)
